# Measured values reported in the kinase profiling compilation of Christmann-Franck et al. (2016).
# What was measured:
# Assay in all cases: KINOMEscan competition binding
# Conditions in all cases: compound 10.0 µM
# ABL1 (human) = ABL1 (human) (UniProt P00519)
# [1] = tested on: ABL1 (human), P00519 [E255K]
# [2] = tested on: ABL1 (human), P00519 [F317L]
# ACVR1B (human) = ACVR1B (human) (UniProt P36896)
# ADCK3 (human) = ADCK3 (human) (UniProt Q8NI60)
# AXL (human) = AXL (human) (UniProt P30530)
# CAMK1D (human) = CAMK1D (human) (UniProt Q8IU85)
# CAMK4 (human) = CAMK4 (human) (UniProt Q16566)
# CDK3 (human) = CDK3 (human) (UniProt Q00526)
# CDK5 (human) = CDK5 (human) (UniProt Q00535)
# CSK (human) = CSK (human) (UniProt P41240)
# CSNK1A1L (human) = CSNK1A1L (human) (UniProt Q8N752)
# DDR1 (human) = DDR1 (human) (UniProt Q08345)
# EPHA1 (human) = EPHA1 (human) (UniProt P21709)
# EPHA3 (human) = EPHA3 (human) (UniProt P29320)
# EPHA8 (human) = EPHA8 (human) (UniProt P29322)
# EPHB1 (human) = EPHB1 (human) (UniProt P54762)
# FGFR1 (human) = FGFR1 (human) (UniProt P11362)
# FGFR3 (human) = FGFR3 (human) (UniProt P22607)
# GSK3B (human) = GSK3B (human) (UniProt P49841)
# IKBKB (human) = IKBKB (human) (UniProt O14920)
# IKBKE (human) = IKBKE (human) (UniProt Q14164)
# LCK (human) = LCK (human) (UniProt P06239)
# MAP3K3 (human) = MAP3K3 (human) (UniProt Q99759)
# MAP3K9 (human) = MAP3K9 (human) (UniProt P80192)
# MAP4K3 (human) = MAP4K3 (human) (UniProt Q8IVH8)
# MAPK11 (human) = MAPK11 (human) (UniProt Q15759)
# MAPKAPK5 (human) = MAPKAPK5 (human) (UniProt Q8IW41)
# MYO3B (human) = MYO3B (human) (UniProt Q8WXR4)
# NEK6 (human) = NEK6 (human) (UniProt Q9HC98)
# NTRK1 (human) = NTRK1 (human) (UniProt P04629)
# PDPK1 (human) = PDPK1 (human) (UniProt O15530)
# PIK3C2B (human) = PIK3C2B (human) (UniProt O00750)
# PIK3CB (human) = PIK3CB (human) (UniProt P42338)
# PLK3 (human) = PLK3 (human) (UniProt Q9H4B4)
# PRKCD (human) = PRKCD (human) (UniProt Q05655)
# RPS6KA2 KD1 (human) = RPS6KA2 KD1 (human) (UniProt Q15349)
# STK36 (human) = STK36 (human) (UniProt Q9NRP7)
# STK4 (human) = STK4 (human) (UniProt Q13043)
# TLK2 (human) = TLK2 (human) (UniProt Q86UE8)
# TXK (human) = TXK (human) (UniProt P42681)
# WEE1 (human) = WEE1 (human) (UniProt P30291)
# Sequence of EPHA1 (human) (P21709 whole entry, looked up): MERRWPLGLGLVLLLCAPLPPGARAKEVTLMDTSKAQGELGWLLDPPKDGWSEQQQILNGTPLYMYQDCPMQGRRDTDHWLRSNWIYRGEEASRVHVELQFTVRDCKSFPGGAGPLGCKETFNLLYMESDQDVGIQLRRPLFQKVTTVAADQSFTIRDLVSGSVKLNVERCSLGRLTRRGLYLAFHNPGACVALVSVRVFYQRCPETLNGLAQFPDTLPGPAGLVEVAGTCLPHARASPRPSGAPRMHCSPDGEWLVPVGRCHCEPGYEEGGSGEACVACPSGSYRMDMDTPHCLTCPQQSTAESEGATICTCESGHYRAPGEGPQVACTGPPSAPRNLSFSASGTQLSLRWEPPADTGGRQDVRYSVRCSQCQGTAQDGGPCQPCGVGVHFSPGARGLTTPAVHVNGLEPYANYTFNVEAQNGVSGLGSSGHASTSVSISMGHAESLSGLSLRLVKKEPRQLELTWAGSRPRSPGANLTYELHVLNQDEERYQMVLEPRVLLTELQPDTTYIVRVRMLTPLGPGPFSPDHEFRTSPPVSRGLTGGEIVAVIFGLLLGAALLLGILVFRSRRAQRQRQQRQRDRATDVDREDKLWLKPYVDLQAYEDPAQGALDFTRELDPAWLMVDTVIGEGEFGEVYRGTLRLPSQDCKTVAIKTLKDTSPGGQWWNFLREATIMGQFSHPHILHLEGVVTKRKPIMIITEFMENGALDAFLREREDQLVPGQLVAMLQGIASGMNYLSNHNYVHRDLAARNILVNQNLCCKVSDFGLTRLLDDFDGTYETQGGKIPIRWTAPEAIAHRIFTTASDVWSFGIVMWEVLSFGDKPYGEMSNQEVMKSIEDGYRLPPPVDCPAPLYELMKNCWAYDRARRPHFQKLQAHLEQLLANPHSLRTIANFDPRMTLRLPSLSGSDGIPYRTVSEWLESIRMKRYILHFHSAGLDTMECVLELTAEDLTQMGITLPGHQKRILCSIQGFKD
# Sequence of CAMK4 (human) (Q16566 whole entry, looked up): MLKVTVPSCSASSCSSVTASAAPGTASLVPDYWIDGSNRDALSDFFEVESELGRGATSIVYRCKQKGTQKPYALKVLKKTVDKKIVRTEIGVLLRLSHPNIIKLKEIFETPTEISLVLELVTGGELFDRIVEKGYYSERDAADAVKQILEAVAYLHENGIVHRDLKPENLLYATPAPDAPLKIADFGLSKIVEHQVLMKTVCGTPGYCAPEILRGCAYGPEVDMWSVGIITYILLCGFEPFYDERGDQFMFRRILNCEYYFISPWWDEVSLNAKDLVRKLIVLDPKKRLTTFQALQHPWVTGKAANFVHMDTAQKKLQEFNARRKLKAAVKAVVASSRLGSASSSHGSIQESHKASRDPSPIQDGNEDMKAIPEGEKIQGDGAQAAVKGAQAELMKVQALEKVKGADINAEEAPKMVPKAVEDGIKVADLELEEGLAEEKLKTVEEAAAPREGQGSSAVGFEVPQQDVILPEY
# Sequence of LCK (human) (P06239 whole entry, looked up): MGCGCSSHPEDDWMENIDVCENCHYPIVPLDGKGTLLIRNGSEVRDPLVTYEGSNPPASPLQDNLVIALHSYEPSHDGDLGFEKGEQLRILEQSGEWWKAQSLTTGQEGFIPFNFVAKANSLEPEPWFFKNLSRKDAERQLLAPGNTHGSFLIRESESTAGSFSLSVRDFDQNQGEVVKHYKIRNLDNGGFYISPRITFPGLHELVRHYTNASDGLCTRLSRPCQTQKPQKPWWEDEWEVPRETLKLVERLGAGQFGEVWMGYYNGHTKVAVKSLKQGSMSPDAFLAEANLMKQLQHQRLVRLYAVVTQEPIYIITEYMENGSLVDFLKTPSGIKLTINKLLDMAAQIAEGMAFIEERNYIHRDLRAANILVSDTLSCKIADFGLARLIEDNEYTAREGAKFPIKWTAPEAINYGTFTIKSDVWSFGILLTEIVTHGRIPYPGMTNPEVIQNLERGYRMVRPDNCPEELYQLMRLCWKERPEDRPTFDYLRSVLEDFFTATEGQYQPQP
# Sequence of PIK3CB (human) (P42338 whole entry, looked up): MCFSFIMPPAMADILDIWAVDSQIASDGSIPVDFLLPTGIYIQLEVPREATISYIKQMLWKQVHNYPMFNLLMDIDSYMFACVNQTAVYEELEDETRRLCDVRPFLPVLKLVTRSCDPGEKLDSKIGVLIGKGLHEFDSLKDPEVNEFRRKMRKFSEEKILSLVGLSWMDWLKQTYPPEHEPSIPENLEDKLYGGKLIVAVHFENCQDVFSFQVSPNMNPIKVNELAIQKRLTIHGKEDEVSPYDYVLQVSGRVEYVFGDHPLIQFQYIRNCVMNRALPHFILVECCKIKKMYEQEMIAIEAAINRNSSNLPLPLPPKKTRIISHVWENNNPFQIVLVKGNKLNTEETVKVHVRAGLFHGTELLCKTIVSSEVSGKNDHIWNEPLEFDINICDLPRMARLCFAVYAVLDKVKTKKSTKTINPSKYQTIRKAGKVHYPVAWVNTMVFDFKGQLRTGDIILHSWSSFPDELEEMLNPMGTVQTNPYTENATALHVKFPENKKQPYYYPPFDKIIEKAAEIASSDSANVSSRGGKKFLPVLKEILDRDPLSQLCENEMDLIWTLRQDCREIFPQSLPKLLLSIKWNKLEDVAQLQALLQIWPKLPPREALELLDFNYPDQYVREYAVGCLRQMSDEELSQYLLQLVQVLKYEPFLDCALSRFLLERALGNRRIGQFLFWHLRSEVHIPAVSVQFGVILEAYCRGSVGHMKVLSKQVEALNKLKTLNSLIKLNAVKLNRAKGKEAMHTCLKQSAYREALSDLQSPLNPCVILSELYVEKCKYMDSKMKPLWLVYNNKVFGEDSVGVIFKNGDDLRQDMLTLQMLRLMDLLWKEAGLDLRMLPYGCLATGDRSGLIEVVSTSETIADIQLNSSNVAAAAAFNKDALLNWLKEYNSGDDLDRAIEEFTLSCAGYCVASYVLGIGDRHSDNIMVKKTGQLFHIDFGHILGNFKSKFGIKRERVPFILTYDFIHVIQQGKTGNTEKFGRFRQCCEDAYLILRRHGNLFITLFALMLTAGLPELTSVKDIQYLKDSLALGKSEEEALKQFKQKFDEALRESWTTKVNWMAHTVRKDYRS
# Sequence of ACVR1B (human) (P36896 whole entry, looked up): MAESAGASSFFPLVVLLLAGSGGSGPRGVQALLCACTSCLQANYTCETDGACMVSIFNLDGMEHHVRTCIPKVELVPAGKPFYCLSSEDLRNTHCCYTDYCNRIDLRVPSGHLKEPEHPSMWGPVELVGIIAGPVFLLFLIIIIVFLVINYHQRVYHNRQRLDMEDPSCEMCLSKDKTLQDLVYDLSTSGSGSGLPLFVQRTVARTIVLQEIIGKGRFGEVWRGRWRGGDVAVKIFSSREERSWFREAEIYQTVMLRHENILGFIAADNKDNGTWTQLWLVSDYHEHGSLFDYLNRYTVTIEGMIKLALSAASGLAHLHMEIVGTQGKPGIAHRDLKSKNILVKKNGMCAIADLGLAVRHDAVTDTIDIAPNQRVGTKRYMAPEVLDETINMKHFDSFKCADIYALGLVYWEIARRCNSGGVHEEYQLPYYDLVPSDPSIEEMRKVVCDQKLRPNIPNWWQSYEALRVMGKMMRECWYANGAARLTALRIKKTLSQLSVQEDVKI
# Sequence of IKBKB (human) (O14920 whole entry, looked up): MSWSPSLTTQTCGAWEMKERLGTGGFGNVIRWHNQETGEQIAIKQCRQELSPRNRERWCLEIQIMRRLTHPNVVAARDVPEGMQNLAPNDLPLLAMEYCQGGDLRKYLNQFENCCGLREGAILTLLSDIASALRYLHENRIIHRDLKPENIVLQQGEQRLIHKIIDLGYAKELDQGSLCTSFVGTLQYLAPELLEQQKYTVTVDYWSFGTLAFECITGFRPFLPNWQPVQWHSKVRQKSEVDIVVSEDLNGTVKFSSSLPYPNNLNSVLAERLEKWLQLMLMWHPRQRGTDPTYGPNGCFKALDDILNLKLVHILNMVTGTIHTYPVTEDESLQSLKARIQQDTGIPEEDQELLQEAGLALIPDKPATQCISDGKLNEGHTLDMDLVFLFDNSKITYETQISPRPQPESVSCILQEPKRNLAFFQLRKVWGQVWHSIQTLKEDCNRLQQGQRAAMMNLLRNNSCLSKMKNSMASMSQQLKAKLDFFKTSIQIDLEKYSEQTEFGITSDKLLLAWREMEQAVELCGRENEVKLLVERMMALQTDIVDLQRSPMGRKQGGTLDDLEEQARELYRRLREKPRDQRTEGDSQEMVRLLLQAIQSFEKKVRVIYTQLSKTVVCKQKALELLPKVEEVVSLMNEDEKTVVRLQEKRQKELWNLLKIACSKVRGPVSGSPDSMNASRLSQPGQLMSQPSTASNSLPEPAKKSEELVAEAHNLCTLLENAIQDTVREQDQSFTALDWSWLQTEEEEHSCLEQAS
# Sequence of STK4 (human) (Q13043 whole entry, looked up): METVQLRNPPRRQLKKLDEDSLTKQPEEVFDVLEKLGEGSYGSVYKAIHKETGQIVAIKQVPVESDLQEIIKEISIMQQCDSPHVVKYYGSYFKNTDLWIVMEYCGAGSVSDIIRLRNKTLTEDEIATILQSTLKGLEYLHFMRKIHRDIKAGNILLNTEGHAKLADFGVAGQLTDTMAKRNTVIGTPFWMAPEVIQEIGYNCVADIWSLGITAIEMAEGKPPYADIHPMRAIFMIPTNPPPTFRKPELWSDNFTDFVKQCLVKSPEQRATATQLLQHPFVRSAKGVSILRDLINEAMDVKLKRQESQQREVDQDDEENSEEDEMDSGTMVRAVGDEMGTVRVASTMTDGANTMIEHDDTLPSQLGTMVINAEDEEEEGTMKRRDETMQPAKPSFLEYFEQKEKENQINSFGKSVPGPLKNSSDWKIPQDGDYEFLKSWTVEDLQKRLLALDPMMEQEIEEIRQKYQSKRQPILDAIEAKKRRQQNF
smiles,measurement,setting,value
COc1cc(N2CCC(O)CC2)ccc1Nc1ncc2c(n1)N1CCc3cccc(c31)C(=O)N2C,"kinase still bound, per cent of control",ABL1 (human),100%
same,"kinase still bound, per cent of control",[1],90%
same,"kinase still bound, per cent of control",[2],63%
same,"kinase still bound, per cent of control",ACVR1B (human),100%
same,"kinase still bound, per cent of control",ADCK3 (human),78%
same,"kinase still bound, per cent of control",AXL (human),100%
same,"kinase still bound, per cent of control",CAMK1D (human),87%
same,"kinase still bound, per cent of control",CAMK4 (human),100%
same,"kinase still bound, per cent of control",CDK3 (human),97%
same,"kinase still bound, per cent of control",CDK5 (human),86%
same,"kinase still bound, per cent of control",CSK (human),90%
same,"kinase still bound, per cent of control",CSNK1A1L (human),95%
same,"kinase still bound, per cent of control",DDR1 (human),100%
same,"kinase still bound, per cent of control",EPHA1 (human),100%
same,"kinase still bound, per cent of control",EPHA3 (human),72%
same,"kinase still bound, per cent of control",EPHA8 (human),92%
same,"kinase still bound, per cent of control",EPHB1 (human),99%
same,"kinase still bound, per cent of control",FGFR1 (human),95%
same,"kinase still bound, per cent of control",FGFR3 (human),100%
same,"kinase still bound, per cent of control",GSK3B (human),91%
same,"kinase still bound, per cent of control",IKBKB (human),92%
same,"kinase still bound, per cent of control",IKBKE (human),92%
same,"kinase still bound, per cent of control",LCK (human),100%
same,"kinase still bound, per cent of control",MAP3K3 (human),94%
same,"kinase still bound, per cent of control",MAP3K9 (human),96%
same,"kinase still bound, per cent of control",MAP4K3 (human),66%
same,"kinase still bound, per cent of control",MAPK11 (human),74%
same,"kinase still bound, per cent of control",MAPKAPK5 (human),95%
same,"kinase still bound, per cent of control",MYO3B (human),77%
same,"kinase still bound, per cent of control",NEK6 (human),30%
same,"kinase still bound, per cent of control",NTRK1 (human),82%
same,"kinase still bound, per cent of control",PDPK1 (human),100%
same,"kinase still bound, per cent of control",PIK3C2B (human),100%
same,"kinase still bound, per cent of control",PIK3CB (human),92%
same,"kinase still bound, per cent of control",PLK3 (human),0.75%
same,"kinase still bound, per cent of control",PRKCD (human),100%
same,"kinase still bound, per cent of control",RPS6KA2 KD1 (human),77%
same,"kinase still bound, per cent of control",STK36 (human),100%
same,"kinase still bound, per cent of control",STK4 (human),78%
same,"kinase still bound, per cent of control",TLK2 (human),94%
same,"kinase still bound, per cent of control",TXK (human),100%
same,"kinase still bound, per cent of control",WEE1 (human),100%
COc1cc(N2CCN(C)CC2)ccc1Nc1ncc2c(n1)N(C)c1ccccc1N(C)C2=O,"kinase still bound, per cent of control",ABL1 (human),100%
same,"kinase still bound, per cent of control",[1],100%
same,"kinase still bound, per cent of control",[2],45%
same,"kinase still bound, per cent of control",ACVR1B (human),100%
same,"kinase still bound, per cent of control",ADCK3 (human),85%
same,"kinase still bound, per cent of control",AXL (human),95%
same,"kinase still bound, per cent of control",CAMK1D (human),99%
same,"kinase still bound, per cent of control",CAMK4 (human),100%
same,"kinase still bound, per cent of control",CDK3 (human),96%
same,"kinase still bound, per cent of control",CDK5 (human),100%
same,"kinase still bound, per cent of control",CSK (human),95%
same,"kinase still bound, per cent of control",CSNK1A1L (human),100%
same,"kinase still bound, per cent of control",DDR1 (human),93%
same,"kinase still bound, per cent of control",EPHA1 (human),100%
same,"kinase still bound, per cent of control",EPHA3 (human),81%
same,"kinase still bound, per cent of control",EPHA8 (human),100%
same,"kinase still bound, per cent of control",EPHB1 (human),100%
same,"kinase still bound, per cent of control",FGFR1 (human),100%
same,"kinase still bound, per cent of control",FGFR3 (human),100%
same,"kinase still bound, per cent of control",GSK3B (human),82%
same,"kinase still bound, per cent of control",IKBKB (human),75%
same,"kinase still bound, per cent of control",IKBKE (human),100%
same,"kinase still bound, per cent of control",LCK (human),100%
same,"kinase still bound, per cent of control",MAP3K3 (human),93%
same,"kinase still bound, per cent of control",MAP3K9 (human),100%
same,"kinase still bound, per cent of control",MAP4K3 (human),100%
same,"kinase still bound, per cent of control",MAPK11 (human),100%
same,"kinase still bound, per cent of control",MAPKAPK5 (human),100%
same,"kinase still bound, per cent of control",MYO3B (human),89%
same,"kinase still bound, per cent of control",NEK6 (human),100%
same,"kinase still bound, per cent of control",NTRK1 (human),76%
same,"kinase still bound, per cent of control",PDPK1 (human),79%
same,"kinase still bound, per cent of control",PIK3C2B (human),100%
same,"kinase still bound, per cent of control",PIK3CB (human),83%
same,"kinase still bound, per cent of control",PLK3 (human),100%
same,"kinase still bound, per cent of control",PRKCD (human),100%
same,"kinase still bound, per cent of control",RPS6KA2 KD1 (human),82%
same,"kinase still bound, per cent of control",STK36 (human),88%
same,"kinase still bound, per cent of control",STK4 (human),100%
same,"kinase still bound, per cent of control",TLK2 (human),96%
same,"kinase still bound, per cent of control",TXK (human),100%
same,"kinase still bound, per cent of control",WEE1 (human),92%
